Data reported in patent US10906873B2, “Substituted cyclic amides as herbicides” (FMC Corporation, priority 2015, dated 2021).

Columns and labels:
Type in all cases: in vivo
[1] = test system: ragweed (common ragweed, Ambrosia elatior); assay: Test A preemergence, ragweed; details: 0 to 100 scale
Excerpt: (§1) Seeds of plant species selected from barnyardgrass (Echinochloa crus-galli), crabgrass (large crabgrass, Digitaria sanguinalis), kochia (Kochia scoparia), ragweed (common ragweed, Ambrosia elatior), morningglory (Ipomoea spp.), velvetleaf (Abutilon theophrasti), ryegrass, It. (Italian ryegrass, Lolium multiflorum), foxtail, giant (giant foxtail, Setaria faberii), wheat (Triticum aestivum), corn (Zea mays), and pigweed (Amaranthus retroflexus), were planted into a blend of loam soil and sand and treated preemergence with a directed soil spray using test chemicals formulated in a non-phytotoxic solvent mixture which included a surfactant. At the same time, plants selected from these crop and weed species and also blackgrass (Alopecurus myosuroides), and galium (catchweed bedstraw, Galium aparine), were planted in pots containing the same blend of loam soil and sand and treated with postemergence applications of test chemicals formulated in the same manner. Plants ranged in height from 2 to 10 cm and were in the one- to two-leaf stage for the postemergence treatment. Treated plants and untreated controls were maintained in a greenhouse for approximately 10 d, after which time all treated plants were compared to untreated controls and visually evaluated for injury. Plant response ratings, summarized in Table A, are based on a 0 to 100 scale where 0 is no effect and 100 is complete control. A dash (-) response means no test result.

[2] = test system: ryegrass, It. (Italian ryegrass, Lolium multiflorum); assay: Test A postemergence, ryegrass, It.; details: 0 to 100 scale
Excerpt: as §1

[3] = test system: barnyardgrass (Echinochloa crus-galli); assay: Test B flooded paddy test, barnyardgrass; details: Flood, scale of 0 to 100 where 0 is no effect and 100 is complete control, 13 to 15 d
Description: (§2) Plant species in the flooded paddy test selected from rice (Oryza sativa), sedge, umbrella (small-flower umbrella sedge, Cyperus difformis), ducksalad (Heteranthera limosa), and barnyardgrass (Echinochloa crus-galli) were grown to the 2-leaf stage for testing. At time of treatment, test pots were flooded to 3 cm above the soil surface, treated by application of test compounds directly to the paddy water, and then maintained at that water depth for the duration of the test. Treated plants and controls were maintained in a greenhouse for 13 to 15 d, after which time all species were compared to controls and visually evaluated. Plant response ratings, summarized in Table B, are based on a scale of 0 to 100 where 0 is no effect and 100 is complete control. A dash (-) response means no test result.

[4] = test system: ragweed (common ragweed, Ambrosia elatior); assay: Test A postemergence, ragweed; details: 0 to 100 scale
Excerpt: as §1

[5] = test system: wheat (Triticum aestivum); assay: Test A postemergence, wheat; details: 0 to 100 scale
Excerpt: as §1

[6] = test system: ryegrass, It. (Italian ryegrass, Lolium multiflorum); assay: Test A preemergence, ryegrass, It.; details: 0 to 100 scale
Excerpt: as §1

[7] = test system: pigweed (Amaranthus retroflexus); assay: Test A preemergence, pigweed; details: 0 to 100 scale
Excerpt: as §1

[8] = test system: sedge, umbrella (small-flower umbrella sedge, Cyperus difformis); assay: Test B flooded paddy test, sedge, umbrella; details: Flood, scale of 0 to 100 where 0 is no effect and 100 is complete control, 13 to 15 d
Description: as §2

kochia (Kochia scoparia) [9] = assay: Test A postemergence, kochia; details: 0 to 100 scale
Excerpt: as §1

[10] = test system: blackgrass (Alopecurus myosuroides); assay: Test A postemergence, blackgrass; details: 0 to 100 scale
Excerpt: as §1

[11] = test system: barnyardgrass (Echinochloa crus-galli); assay: Test A preemergence, barnyardgrass; details: 0 to 100 scale
Excerpt: as §1

[12] = test system: galium (catchweed bedstraw, Galium aparine); assay: Test A postemergence, galium; details: 0 to 100 scale
Excerpt: as §1

kochia (Kochia scoparia) [13] = assay: Test A preemergence, kochia; details: 0 to 100 scale
Excerpt: as §1

[14] = test system: foxtail, giant (giant foxtail, Setaria faberii); assay: Test A preemergence, foxtail, giant; details: 0 to 100 scale
Excerpt: as §1

[15] = test system: pigweed (Amaranthus retroflexus); assay: Test A postemergence, pigweed; details: 0 to 100 scale
Excerpt: as §1

corn (Zea mays) = assay: Test A postemergence, corn; details: 0 to 100 scale
Excerpt: as §1

rice (Oryza sativa) = assay: Test B flooded paddy test, rice; details: Flood, scale of 0 to 100 where 0 is no effect and 100 is complete control, 13 to 15 d
Description: as §2

[16] = test system: barnyardgrass (Echinochloa crus-galli); assay: Test A postemergence, barnyardgrass; details: 0 to 100 scale
Excerpt: as §1

[17] = test system: ducksalad (Heteranthera limosa); assay: Test B flooded paddy test, ducksalad; details: Flood, scale of 0 to 100 where 0 is no effect and 100 is complete control, 13 to 15 d
Description: as §2

[18] = test system: foxtail, giant (giant foxtail, Setaria faberii); assay: Test A postemergence, foxtail, giant; details: 0 to 100 scale
Excerpt: as §1

Row | SMILES | Plant response rating, Ragweed ([1]; 125 g ai/ha) | Plant response rating, Ragweed ([1]; 500 g ai/ha) | Plant response rating, Ryegrass, It. ([2]; 125 g ai/ha) | Plant response rating, Ryegrass, It. ([2]; 500 g ai/ha) | Plant response rating, Ragweed ([4]; 125 g ai/ha) | Plant response rating, Ragweed ([4]; 500 g ai/ha) | Plant response rating, Wheat ([5]; 125 g ai/ha) | Plant response rating, Wheat ([5]; 500 g ai/ha) | Plant response rating, Ryegrass, It. ([6]; 125 g ai/ha) | Plant response rating, Ryegrass, It. ([6]; 500 g ai/ha) | Plant response rating, Pigweed ([7]; 125 g ai/ha) | Plant response rating, Pigweed ([7]; 500 g ai/ha) | Plant response rating, Kochia (kochia (Kochia scoparia) [9]; 125 g ai/ha) | Plant response rating, Kochia (kochia (Kochia scoparia) [9]; 500 g ai/ha) | Plant response rating, Blackgrass ([10]; 125 g ai/ha) | Plant response rating, Blackgrass ([10]; 500 g ai/ha) | Plant response rating, Barnyardgrass ([11]; 125 g ai/ha) | Plant response rating, Barnyardgrass ([11]; 500 g ai/ha) | Plant response rating, Galium ([12]; 125 g ai/ha) | Plant response rating, Galium ([12]; 500 g ai/ha) | also measured
1 | O=C1NCC(/C=C/c2ccc(F)cc2)C1C(=O)Nc1cccc(F)c1F (stereo not drawn) [Compound 31] | 0 | 0 | 0 | 20 | 0 | 20 | 0 | 0 | 0 | 0 | 0 | 0 | 0 | 30 | 0 | 0 | 0 | 70 | 0 | 30 | Plant response rating, Barnyardgrass ([3]; 250 g ai/ha): 40; Plant response rating, Sedge, Umbrella ([8]; 250 g ai/ha): 50; Plant response rating, Kochia (kochia (Kochia scoparia) [13]; 125 g ai/ha): 0; Plant response rating, Kochia (kochia (Kochia scoparia) [13]; 500 g ai/ha): 20; Plant response rating, Foxtail, Giant ([14]; 125 g ai/ha): 20; Plant response rating, Foxtail, Giant ([14]; 500 g ai/ha): 70; Plant response rating, Pigweed ([15]; 125 g ai/ha): 0; Plant response rating, Pigweed ([15]; 500 g ai/ha): 0; Plant response rating, Corn (corn (Zea mays); 125 g ai/ha): 0; Plant response rating, Corn (corn (Zea mays); 500 g ai/ha): 20; Plant response rating, Rice (rice (Oryza sativa); 250 g ai/ha): 15; Plant response rating, Barnyardgrass ([16]; 125 g ai/ha): 30; Plant response rating, Barnyardgrass ([16]; 500 g ai/ha): 70; Plant response rating, Ducksalad ([17]; 250 g ai/ha): 80; Plant response rating, Foxtail, Giant ([18]; 125 g ai/ha): 30; Plant response rating, Foxtail, Giant ([18]; 500 g ai/ha): 60
2 | O=C1NCC(C#Cc2ccc(F)cc2)C1C(=O)Nc1ccc(F)c(F)c1F (stereo not drawn) [Compound 17] | 0 | 0 | 0 | 0 | 0 | 0 | 0 | 0 | 0 | 0 | 0 | 20 | 0 | 0 | 0 | 0 | 20 | 50 | 0 | 0 | Plant response rating, Barnyardgrass ([3]; 250 g ai/ha): 0; Plant response rating, Sedge, Umbrella ([8]; 250 g ai/ha): 0; Plant response rating, Kochia (kochia (Kochia scoparia) [13]; 125 g ai/ha): 0; Plant response rating, Kochia (kochia (Kochia scoparia) [13]; 500 g ai/ha): 0; Plant response rating, Foxtail, Giant ([14]; 125 g ai/ha): 30; Plant response rating, Foxtail, Giant ([14]; 500 g ai/ha): 90; Plant response rating, Pigweed ([15]; 125 g ai/ha): 0; Plant response rating, Pigweed ([15]; 500 g ai/ha): 0; Plant response rating, Corn (corn (Zea mays); 125 g ai/ha): 0; Plant response rating, Corn (corn (Zea mays); 500 g ai/ha): 0; Plant response rating, Rice (rice (Oryza sativa); 250 g ai/ha): 0; Plant response rating, Barnyardgrass ([16]; 125 g ai/ha): 20; Plant response rating, Barnyardgrass ([16]; 500 g ai/ha): 90; Plant response rating, Ducksalad ([17]; 250 g ai/ha): 70; Plant response rating, Foxtail, Giant ([18]; 125 g ai/ha): 0; Plant response rating, Foxtail, Giant ([18]; 500 g ai/ha): 50
3 | O=C1NCC(Cc2ccc(C(F)(F)F)cc2)C1C(=O)Nc1ccccc1C(F)(F)F (stereo not drawn) [Compound 6] | 0 | 0 | 0 | 0 | 0 | 0 | 0 | 0 | 0 | 0 | 0 | 0 | 0 | 0 | 0 | 0 | 0 | 0 | 0 | 0 | Plant response rating, Barnyardgrass ([3]; 500 g ai/ha): 0; Plant response rating, Sedge, Umbrella ([8]; 500 g ai/ha): 0; Plant response rating, Kochia (kochia (Kochia scoparia) [13]; 125 g ai/ha): 0; Plant response rating, Kochia (kochia (Kochia scoparia) [13]; 500 g ai/ha): 0; Plant response rating, Foxtail, Giant ([14]; 125 g ai/ha): 0; Plant response rating, Foxtail, Giant ([14]; 500 g ai/ha): 0; Plant response rating, Pigweed ([15]; 125 g ai/ha): 0; Plant response rating, Pigweed ([15]; 500 g ai/ha): 0; Plant response rating, Corn (corn (Zea mays); 125 g ai/ha): 0; Plant response rating, Corn (corn (Zea mays); 500 g ai/ha): 0; Plant response rating, Rice (rice (Oryza sativa); 500 g ai/ha): 0; Plant response rating, Barnyardgrass ([16]; 125 g ai/ha): 0; Plant response rating, Barnyardgrass ([16]; 500 g ai/ha): 0; Plant response rating, Ducksalad ([17]; 500 g ai/ha): 0; Plant response rating, Foxtail, Giant ([18]; 125 g ai/ha): 0; Plant response rating, Foxtail, Giant ([18]; 500 g ai/ha): 0
4 | O=C1NCC(Cc2ccc(C(F)(F)F)cc2)C1C(=O)Nc1cccc(F)c1F (stereo not drawn) [Compound 7] | 0 | 0 | 0 | 0 | 0 | 0 | 0 | 0 | 0 | 0 | 0 | 0 | 0 | 0 | 0 | 0 | 0 | 40 | 0 | 0 | Plant response rating, Barnyardgrass ([3]; 500 g ai/ha): 25; Plant response rating, Sedge, Umbrella ([8]; 500 g ai/ha): 0; Plant response rating, Kochia (kochia (Kochia scoparia) [13]; 125 g ai/ha): 0; Plant response rating, Kochia (kochia (Kochia scoparia) [13]; 500 g ai/ha): 0; Plant response rating, Foxtail, Giant ([14]; 125 g ai/ha): 0; Plant response rating, Foxtail, Giant ([14]; 500 g ai/ha): 30; Plant response rating, Pigweed ([15]; 125 g ai/ha): 0; Plant response rating, Pigweed ([15]; 500 g ai/ha): 0; Plant response rating, Corn (corn (Zea mays); 125 g ai/ha): 0; Plant response rating, Corn (corn (Zea mays); 500 g ai/ha): 0; Plant response rating, Rice (rice (Oryza sativa); 500 g ai/ha): 0; Plant response rating, Barnyardgrass ([16]; 125 g ai/ha): 0; Plant response rating, Barnyardgrass ([16]; 500 g ai/ha): 60; Plant response rating, Ducksalad ([17]; 500 g ai/ha): 75; Plant response rating, Foxtail, Giant ([18]; 125 g ai/ha): 0; Plant response rating, Foxtail, Giant ([18]; 500 g ai/ha): 20
5 | Cc1cccc(C#CC2CNC(=O)C2C(=O)Nc2cccc(F)c2F)c1 (stereo not drawn) [Compound 22] | 0 | 0 | 0 | 0 | 0 | 0 | 0 | 0 | 0 | 0 | 0 | 0 | 0 | 0 | 0 | 0 | 60 | 80 | 0 | 20 | Plant response rating, Barnyardgrass ([3]; 250 g ai/ha): 0; Plant response rating, Sedge, Umbrella ([8]; 250 g ai/ha): 0; Plant response rating, Kochia (kochia (Kochia scoparia) [13]; 125 g ai/ha): 0; Plant response rating, Kochia (kochia (Kochia scoparia) [13]; 500 g ai/ha): 20; Plant response rating, Foxtail, Giant ([14]; 125 g ai/ha): 50; Plant response rating, Foxtail, Giant ([14]; 500 g ai/ha): 70; Plant response rating, Pigweed ([15]; 125 g ai/ha): 0; Plant response rating, Pigweed ([15]; 500 g ai/ha): 0; Plant response rating, Corn (corn (Zea mays); 125 g ai/ha): 0; Plant response rating, Corn (corn (Zea mays); 500 g ai/ha): 20; Plant response rating, Rice (rice (Oryza sativa); 250 g ai/ha): 0; Plant response rating, Barnyardgrass ([16]; 125 g ai/ha): 40; Plant response rating, Barnyardgrass ([16]; 500 g ai/ha): 70; Plant response rating, Ducksalad ([17]; 250 g ai/ha): 70; Plant response rating, Foxtail, Giant ([18]; 125 g ai/ha): 20; Plant response rating, Foxtail, Giant ([18]; 500 g ai/ha): 50
